Consider 8 compounds from ChEMBL document CHEMBL3886985, “Benzothiophene derivative” (2016).

For the first experiment, the target named is T1, cAMP and cAMP-inhibited cGMP 3',5'-cyclic phosphodiesterase 10A (Homo sapiens, UniProt Q9Y233). Put plainly: Activity Assay: Inhibitory activity-1 assay: To a solution containing 20 mM Tris-HCl (pH 7.5), 1 mM MgCl2, 100 μM EDTA, 330 μg/ml bovine serum albumin, 50 kU/ml 5′-nucleotidase, 0.1 μCi 3H-cAMP (64 nM cAMP), and PDE10A (H-PDE10A2, Human Phosphodiesterase 10A2, Scottish Biomedical), a test compound was added, and the mixture was reacted at 25° C. for 2 hours. To the reaction solution, QAE-Sephadex (17-0190-01, GE Healthcare Japan Corp.) suspended in 10 mM HEPES-Na (pH 7.0) (hereinafter, also referred to as a “QAE-Sephadex suspension”) was added, and the mixture was shaken for 1 minute and left standing for 5 minutes to obtain a supernatant. To the supernatant, a QAE-Sephadex suspension was further added, and the mixture was shaken for 1 minute and left standing for 5 minutes. Then, the obtained supernatant was transferred to LumaPlate (PerkinElmer, Inc.) and assayed using a radiation counter (TopCount NXT, PerkinElmer, Inc.).
T1 sequence (Q9Y233 whole entry): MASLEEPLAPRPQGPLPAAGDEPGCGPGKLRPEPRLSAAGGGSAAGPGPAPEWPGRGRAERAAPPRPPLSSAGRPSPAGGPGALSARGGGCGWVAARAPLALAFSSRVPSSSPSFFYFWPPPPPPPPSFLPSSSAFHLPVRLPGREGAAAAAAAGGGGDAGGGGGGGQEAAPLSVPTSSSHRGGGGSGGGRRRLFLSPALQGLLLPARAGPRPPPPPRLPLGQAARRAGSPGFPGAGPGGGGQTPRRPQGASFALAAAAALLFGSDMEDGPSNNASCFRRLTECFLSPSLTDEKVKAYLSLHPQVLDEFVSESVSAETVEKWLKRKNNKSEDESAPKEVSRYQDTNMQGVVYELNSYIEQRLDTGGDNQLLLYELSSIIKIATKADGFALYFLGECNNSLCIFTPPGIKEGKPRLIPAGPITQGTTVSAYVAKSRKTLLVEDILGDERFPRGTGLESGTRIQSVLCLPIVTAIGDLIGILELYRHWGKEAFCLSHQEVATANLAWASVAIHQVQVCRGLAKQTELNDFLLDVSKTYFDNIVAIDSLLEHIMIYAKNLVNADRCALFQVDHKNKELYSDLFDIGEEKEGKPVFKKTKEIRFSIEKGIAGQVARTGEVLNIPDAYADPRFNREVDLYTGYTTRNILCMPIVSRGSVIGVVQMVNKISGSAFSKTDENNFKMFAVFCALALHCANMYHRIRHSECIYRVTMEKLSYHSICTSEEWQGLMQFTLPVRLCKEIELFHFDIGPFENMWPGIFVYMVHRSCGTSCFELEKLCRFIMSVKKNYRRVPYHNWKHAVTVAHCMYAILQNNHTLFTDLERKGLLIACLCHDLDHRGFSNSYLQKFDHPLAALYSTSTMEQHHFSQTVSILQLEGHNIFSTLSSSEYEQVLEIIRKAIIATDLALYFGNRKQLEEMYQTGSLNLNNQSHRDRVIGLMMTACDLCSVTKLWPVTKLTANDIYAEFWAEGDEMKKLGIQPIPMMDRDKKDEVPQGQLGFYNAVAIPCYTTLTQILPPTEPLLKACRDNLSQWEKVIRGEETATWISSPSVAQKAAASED
With `COCc1ccc(C(C)=O)c2sc(C(=O)Nc3ccc4c(COP(=O)(O)O)cccc4n3)c(C)c12`, the IC50 came out at 0.99 nM.

Another experiment addresses T1, cAMP and cAMP-inhibited cGMP 3',5'-cyclic phosphodiesterase 10A. The experiment can be described thus: Activity Assay: A human acute lymphoblastic […] T cell line MOLT-4 (which can be purchased under ATCC No. CRL-1582 from ATCC) was cultured in an RPMI1640 medium containing 10% fetal bovine serum to obtain 5108 MOLT-4 cells. The cells were recovered by centrifugation and suspended in 10 ml of buffer solution A (25 mM Tris-HCl, 5 mM 2-mercaptoethanol, 2 mM benzamidine, 2 mM EDTA, and 0.1 mM 4-(2-aminoethyl)benzenesulfonyl hydrochloride, pH 7.5). The cells were homogenized using a Polytron homogenizer and centrifuged (4° C., 25,000 g, 10 minutes). Then, the supernatant was further ultracentrifuged (4° C., 100,000 g, 60 minutes). The obtained supernatant was filtered through a 0.2um filter to obtain a soluble fraction.HiTrap Q HP column (5 ml2, GE Healthcare Japan Corp.) equilibrated with buffer solution A was charged with the obtained soluble fraction. Phosphodiesterase was eluted with 300 ml of buffer solution A containing a linear gradient solution of 0 to 0.8 M NaCl to recover sixty 5-ml fractions. Each fraction was tested for cAMP-metabolizing phosphodiesterase activity. […] In order to confirm whether or not PDE10A mRNA was expressed in the MOLT-4 cells, total RNA was prepared from the MOLT-4 cells according to a standard method and analyzed by RT-PCR using PDE10A gene-specific primers (PDE10A sense primer: 5'-[…]-3' (SEQ ID NO: 1) and PDE10A antisense primer: 5'-[…]-3' (SEQ ID NO: 2)). As a result, PDE10A mRNA was detected from the total RNA of the MOLT-4 cells. On the other hand, total RNA was prepared from Jurkat cells, one type of human T cell, and similarly subjected to RT-PCR. As a result, PDE10A mRNA was rarely detected. An active peak centered around 250 mM NaCl was not observed in fractions obtained by the treatment of Jurkat cells in the same way as above. Eur J Biochem. 1999, 266 (3), 1118-2 has reported that PDE10A from the rat striatum and testis is eluted as an active peak centered around 250 mM NaCl. The experiment is classed as cell-based.
In the case of `COCc1ccc(C(C)=O)c2sc(C(=O)Nc3cc(N(C)C)c4ccccc4n3)c(C)c12`, it took 0.45 nM to reach half-maximal inhibition (IC50).

Regarding `COCc1ccc(C(C)=O)c2sc(C(=O)Nc3ccc4c(CN5CCOCC5)cccc4n3)c(C)c12`, inhibition was half-maximal at 1.3 nM (IC50).

The compound `COCc1ccc(C(C)=O)c2sc(C(=O)Nc3ccc4c(COC(=O)CCC(=O)O)cccc4n3)c(C)c12` came in with a 50% inhibitory concentration (IC50) of 1 nM.

`COCc1ccc(C(C)=O)c2sc(C(=O)Nc3ccc4c(C(=O)N5CCN(C)CC5)cccc4n3)c(C)c12` came in with an IC50 of 0.31 nM.

`COCc1ccc(C(C)=O)c2sc(C(=O)Nc3ccc4c(CN(C)C)cccc4n3)c(C)c12`: the IC50 came out at 1.8 nM.

For the compound `COCc1ccc(C(C)=O)c2sc(C(=O)Nc3ccc4ccccc4n3)c(C)c12`, the IC50 amounted to 1.1 nM.

With `COCc1ccc(C(C)=O)c2sc(C(=O)Nc3ccc4c(CN5CC[C@@H](F)C5)cccc4n3)c(C)c12`, 1.2 nM corresponded to half-maximal inhibition (IC50).
